pIC50: −log10 of the molar value.
Experiments:
aldosterone synthase = biological target: T1, aldosterone synthase (Homo sapiens, UniProt P19099); assay: Aldosterone production in Ang II-stimulated NCI-H295R cells (aldosterone synthase inhibition); assay type: cell-based; conditions: AS: aldosterone synthase
T1 construct: host or cells: NCI-H295R
T1 sequence (P19099 25-503): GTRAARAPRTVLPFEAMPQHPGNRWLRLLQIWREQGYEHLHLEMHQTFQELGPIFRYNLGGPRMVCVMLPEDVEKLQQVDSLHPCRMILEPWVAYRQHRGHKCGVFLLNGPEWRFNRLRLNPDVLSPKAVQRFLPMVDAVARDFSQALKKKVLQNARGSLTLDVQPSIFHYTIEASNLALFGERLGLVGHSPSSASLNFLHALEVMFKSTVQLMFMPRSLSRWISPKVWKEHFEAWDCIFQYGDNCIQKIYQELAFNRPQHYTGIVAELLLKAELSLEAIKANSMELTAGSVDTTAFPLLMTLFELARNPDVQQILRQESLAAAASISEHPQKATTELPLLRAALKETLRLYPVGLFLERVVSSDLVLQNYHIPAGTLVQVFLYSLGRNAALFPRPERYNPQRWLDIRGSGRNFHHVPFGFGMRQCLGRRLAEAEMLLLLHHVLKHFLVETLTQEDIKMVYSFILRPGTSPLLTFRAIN
Excerpt: (§1) Human adrenocortical carcinoma NCI-H295R cell line is obtained from American Type Culture Collection (Manassas, Va.). Insulin/transferrin/selenium (ITS)-A supplement (100×), DMEM/F-12, antibiotic/antimycotic (100×), and fetal calf serum (FCS) are purchased from Gibco (Grand Island, N.Y.). Anti-mouse PVT scintillation proximity assay (SPA) beads and NBS 96-well plates are obtained from Amersham (Piscataway, N.J.) and Corning (Acton, Mass.), respectively. Solid black 96-well flat bottom plates are purchased from Costar (Corning, N.Y.). Aldosterone and angiotensin (Ang II) are purchased from Sigma (St. Louis, Mo.). D-[1,2,6,7^−3H(N)]aldosterone was acquired from PerkinElmer (Boston, Mass.). Nu-serum was a product of BD Biosciences (Franklin Lakes, N.J.). The NADPH regenerating system, dibenzylfluorescein (DBF), and human aromatase Supersomes® are obtained from Gentest (Woburn, Mass.).
For in vitro measurement of aldosterone activity, human adrenocortical carcinoma NCI-H295R cells are seeded in NBS 96-well plates at a density of 25,000 cells/well in 100 μl′ of a growth medium containing DMEM/F12 supplemented with 10% FCS, 2.5% Nu-serum, 1 μg ITS/ml, and 1× antibiotic/antimycotic. The medium is changed after culturing for 3 days at 37° C. under an atmosphere of 5% CO2/95% air. On the following day, cells are rinsed with 100 μl of DMEM/F12 and incubated with 100 μl of treatment medium containing 1 μM Ang II and a compound at different concentrations in quadruplicate wells at 37° C. for 24 hr. At the end of incubation, 50 μl of medium is withdrawn from each well for measurement of aldosterone production by an RIA using mouse anti-aldosterone monoclonal antibodies.
Measurement of aldosterone activity can also be performed using, a 96-well plate format. Each test sample is incubated with 0.02 μCi of D-[1,2,6,7-^3H(N)]aldosterone and 0.3 μg of anti-aldosterone antibody in phosphate-buffered saline (PBS) containing 0.1% Triton X-100, 0.1% bovine serum albumin, and 12% glycerol in a total volume of 200 μl at room temperature for 1 hr. Anti-mouse PVT SPA beads (50 μl) are then added to each well and incubated overnight at room temperature prior to counting in a Microbeta plate counter. The amount of aldosterone in each sample is calculated by comparing with a standard curve generated using known quantities of the hormone.
(§2) Full concentration-response curves of the test compound are performed at least 3 times. The IC50 values are derived using a non-linear least squares curve-fitting program from Microsoft XLfit.

human aromatase = biological target: T2, human aromatase (Homo sapiens, UniProt P11511); assay: Human aromatase assay with dibenzylfluorescein substrate (fluorescence); assay type: biochemical; conditions: 1.5 h; percentage of inhibitory rate at 10 μM; ARO: Aromatase; read-out: ARO % I @ 10 μM
T2 construct: purchased Gentest (Woburn, Mass.)
T2 sequence (P11511 1-503): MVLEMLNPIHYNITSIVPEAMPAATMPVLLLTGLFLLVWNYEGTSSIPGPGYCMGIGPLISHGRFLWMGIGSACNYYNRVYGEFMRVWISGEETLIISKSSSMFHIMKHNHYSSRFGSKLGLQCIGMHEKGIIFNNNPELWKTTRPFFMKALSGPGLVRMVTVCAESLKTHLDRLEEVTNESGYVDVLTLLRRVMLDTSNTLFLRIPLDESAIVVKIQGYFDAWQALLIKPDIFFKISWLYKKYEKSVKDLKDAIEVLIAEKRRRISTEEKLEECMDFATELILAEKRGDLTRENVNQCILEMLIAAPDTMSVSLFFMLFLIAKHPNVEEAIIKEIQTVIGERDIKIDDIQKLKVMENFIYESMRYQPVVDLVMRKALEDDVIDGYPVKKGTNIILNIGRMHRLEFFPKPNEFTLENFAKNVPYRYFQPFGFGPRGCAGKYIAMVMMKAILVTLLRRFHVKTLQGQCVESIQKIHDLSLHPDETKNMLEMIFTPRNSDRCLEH
Excerpt: as §1
To measure aromatase activity, the human aromatase assay is performed in 96-well flat bottom plates according to a published protocol (Stresser et al, 2000) with minor modifications. Briefly, 10 μl, of an NADPH regenerating system containing 2.6 mM NADP^+, 6.6 mM glucose 6-phosphate, 6.6 mM MgCl2, and 0.8 U/ml glucose-6-phosphate dehydrogenase in 50 mM potassium phosphate, pH 7.4, is pre-incubated with the test compound at a desired concentration at 30° C. for 10 min in a total volume of 100 μl. Afterwards, 4 pmol of human aromatase, 20 μg of control microsomal protein, and 4 μM DBF in 100 μl of 50 mM potassium phosphate, pH 7.4, is added to each well and incubated at 30° C. for 90 min. The reaction is terminated by the addition of 75 μl of 2 N NaOH to each well. After 2 hr, the product, fluorescein, is measured by a fluorimeter using excitation and emission wavelengths of 485 and 538 nm, respectively.
as §2

CYP11B1 = biological target: T3, CYP11B1 (Homo sapiens, UniProt P15538); assay: CYP11B1 inhibition in NCI-H295R cells (steroid release by radioimmunoassay); assay type: cell-based; conditions: percentage of inhibitory rate at 100 nM; 11B1: CYP11B1
T3 construct: Thus, the NCI-H295R cells have Cyp 11 B1 (steroid 11 p-hydroxylase); host or cells: NCI-H295R
T3 sequence (P15538 25-503): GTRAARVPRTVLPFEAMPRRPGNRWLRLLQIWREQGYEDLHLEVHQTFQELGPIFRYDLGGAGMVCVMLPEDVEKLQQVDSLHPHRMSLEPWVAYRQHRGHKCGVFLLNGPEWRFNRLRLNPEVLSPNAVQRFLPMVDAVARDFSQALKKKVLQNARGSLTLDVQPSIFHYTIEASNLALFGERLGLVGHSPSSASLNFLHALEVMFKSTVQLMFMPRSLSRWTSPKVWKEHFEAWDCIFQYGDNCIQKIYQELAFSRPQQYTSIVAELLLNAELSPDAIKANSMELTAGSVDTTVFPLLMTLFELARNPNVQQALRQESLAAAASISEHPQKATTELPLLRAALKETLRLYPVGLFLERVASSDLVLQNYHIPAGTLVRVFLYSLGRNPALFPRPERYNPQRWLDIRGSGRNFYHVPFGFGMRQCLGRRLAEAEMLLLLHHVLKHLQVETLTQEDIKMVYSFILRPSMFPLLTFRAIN
Excerpt: The in vitro inhibitory activities for CYP 11 B1 can be determined by the following assay.
The cell line NCI-H295R was originally isolated from an adrenocortical carcinoma and has been characterized in the literature through the stimulable secretion of steroid hormones and the presence of the enymes essential for steroidogenesis. Thus, the NCI-H295R cells have Cyp 11 B1 (steroid 11 p-hydroxylase). The cells show the physiological property of zonally undifferentiated human foetal adrenocortical cells which, however, have the capacity to produce the steroid hormones which are formed in the three, phenotypically distinguishable zones in the adult adrenal, cortex.
The NCI-H295R cells (American Type Culture Collection, ATCC, Rockville, Md., USA) are grown in Dulbeoco's Modified Eagle Ham F-12 Medium (DME/F12), which has been I supplemented with Ulroser SF Serum (Soprachem, Cergy-Saint-Christophe, France), insulin, transferrin, selenite (1-T-S, Becton Dickinson Biosiences, Franklin lakes, NJ, USA) and antibiotics in 75 cm^2 cell culture vessels at 37° C. and in a 95% air-5% carbon dioxide atmosphere. The cells are subsequently transferred for colony formation into a 24-well incubation vessel. They are cultivated there in DME/F12 medium, which is now supplemented with 0.1% bovine serum instead of Ultroser SF for 24 hours. The experiment is initiated by cultivating the cells in DME/F12 medium which is supplemented with 0.1% bovine serum albumin and test compound, in the presence or absence of cell stimulants, for 72 hours. The test substance is added in a concentration range from 0.2 nanomolar to […]. […]
The excretion of aldosterone, cortisol, corticosterone and estradiol/estrone into the culture medium can be detected and quantified by commercially available; specific monoclonal antibodies in radioimmunoassays in accordance with the manufacturer's instructions.
Inhibition of the release of certain steroids can be used as a measure of the respective enzyme inhibition by the added test compounds. The dose-dependent inhibition of enzymic activity by a compound is calculated by means of an inhibition plot which is characterized by an IC50.
The IC50 values for active test compounds are ascertained by a simple linear regression analysis in order to construct inhibition plots without data weighting. The inhibition plot is calculated by fting a 4-parameter logistic function to the raw data points using the least squares method. The equation of the 4-parameter logistic function is calculated as follows: Y=(d−a)/((1+(x/c)b))+aI where: a=minimum data level b gradient I c=ICED d=maximum data level x=inhibitor concentration.

| pIC50 (aldosterone synthase) | inhibition at 10 µM (human aromatase) | 11B1 % I @ 100 nM (CYP11B1) | SMILES |
| --- | --- | --- | --- |
| 6.86 | 18% |  | CCC1(C(C)(C)C)C(=O)N(Cc2ccc(F)cc2)Cc2cncn21 (single isomer, unassigned) [Compound 1, 5-tert-Butyl-5-ethyl-7-(4-fluoro-benzyl)-7,8-dihydro-imidazo[1,5-a]pyrazin-6-one] |
| 7.32 | 60% | 100% | CCC(C)(C)C1C(=O)N(Cc2cccc(F)c2)CCc2cncn21 (single isomer, unassigned) [Compound 2, 4-(1,1-Dimethyl-propyl)-6-(3-fluoro-benzyl)-7,8-dihydro-6H-2,3a,6-triaza-azulen-5-one] |
| 7.96 | 48% |  | CC(C)C1C(=O)N(CC2CCCCC2)Cc2cncn21 (single isomer, unassigned) [Compound 3, 7-Cyclohexylmethyl-5-isopropyl-7,8-dihydro-imidazo[5-a]pyrazin-6-one] |
| 7.74 | 93% |  | O=C1C(C2CCC2)n2cncc2CN1Cc1ccc(F)cc1 (single isomer, unassigned) [Compound 5, 5-Cyclobutyl-7-(4-fluoro-benzyl)-7,8-dihydro-imidazo[1,5-a]pyrazin-6-one] |
| 8.52 | 51% | 98% | CC(C)(C)C1C(=O)N(Cc2ccc(Cl)cc2)Cc2cncn21 (single isomer, unassigned) [Compound 6, 5-tert-Butyl-7-(4-chloro-benzyl)-7,8-dihydro-imidazo[1,5-a]pyrazin-6-one] |
| 8.15 | 50% |  | CCC(C)(C)C1C(=O)N(CC2CCCCC2)Cc2cncn21 (single isomer, unassigned) [Compound 7, 7-Cyclohexylmethyl-5 (1,1-dimethyl-propyl)-7,8-dihydro-imidazo[1,5-a]pyrazin-6-one] |
| 7.18 | 74% | 95% | N#Cc1ccc(CN2Cc3cncn3C(C3CC3)C2=O)cc1 (single isomer, unassigned) [Compound 8, 4-(5-Cyclopropyl-6-oxo-5,6-dihydro-8H-imidazo[1,5-a]pyrazin-7-ylmethyl)-benzonitrile] |
| 6.64 | 94% |  | CC(C)C1C(=O)N(Cc2cccc(F)c2)Cc2cncn21 (single isomer, unassigned) [Compound 9, 7-(3-Fluoro-benzyl)-5-isopropyl-7,8-dihydro-imidazo[1,5-a]pyrazin-6-one] |
| 6.72 |  |  | CCC(C)(C)C1C(=O)N(CC2CCOCC2)Cc2cncn21 (single isomer, unassigned) [Compound 10, 5-(1,1-Dimethyl-propyl)-7-(tetrahydro-pyran-4-ylmethyl)-7,8-dihydro-imidazo[5-a]pyrazin-6-one] |
| 6.71 | 99% |  | O=C1C(C2CCC2)n2cncc2CCN1Cc1ccc(F)cc1 (single isomer, unassigned) [Compound 11, 4-Cyclobutyl-6-(4-fluoro-benzyl)-7,8-dihydro-6H-2,3a,6-triaza-azulen-5-one] |
| 7.14 |  | 99% | O=C1N(Cc2ccc(F)cc2)Cc2cncn2C12CCCCC2 [Compound 4, 7′-(4-fluorobenzyl)-7′,8′-dihydro-6′H-spiro[cyclohexane-1,5′-imidazole[1,5-a]pyrazin]-6-one] |

Reference: patent US20090264420A1, “ORGANIC COMPOUNDS” (priority 2006, published 2009)
